# Assay results published in BigSolDB 2.1.
structure (smiles),measurement,setting,value
Cc1cc(=O)c(C(=O)N[C@@H](C(=O)N[C@@H]2C(=O)N3C(C(=O)O)=C(CSc4nnnn4C)CS[C@H]23)c2ccc(O)cc2)c[nH]1,solubility (mole fraction),"in ethanol, 278.2 K",0.000445
same,solubility (mole fraction),"in ethanol, 283.2 K",0.000508
same,solubility (mole fraction),"in ethanol, 288.2 K",0.000592
same,solubility (mole fraction),"in ethanol, 293.2 K",0.00069
same,solubility (mole fraction),"in ethanol, 298.2 K",0.000834
same,solubility (mole fraction),"in ethanol, 303.2 K",0.00101
same,solubility (mole fraction),"in isopropanol, 278.2 K",0.000118
same,solubility (mole fraction),"in isopropanol, 283.2 K",0.00015
same,solubility (mole fraction),"in isopropanol, 288.2 K",0.000187
same,solubility (mole fraction),"in isopropanol, 293.2 K",0.000236
same,solubility (mole fraction),"in isopropanol, 298.2 K",0.000297
same,solubility (mole fraction),"in isopropanol, 303.2 K",0.000376
same,solubility (mole fraction),"in n-butanol, 278.2 K",9.53e-05
same,solubility (mole fraction),"in n-butanol, 283.2 K",0.000115
same,solubility (mole fraction),"in n-butanol, 288.2 K",0.000139
same,solubility (mole fraction),"in n-butanol, 293.2 K",0.000166
same,solubility (mole fraction),"in n-butanol, 298.2 K",0.0002
same,solubility (mole fraction),"in n-butanol, 303.2 K",0.000245
same,solubility (mole fraction),"in n-propanol, 278.2 K",0.000242
same,solubility (mole fraction),"in n-propanol, 283.2 K",0.00027
same,solubility (mole fraction),"in n-propanol, 288.2 K",0.000305
same,solubility (mole fraction),"in n-propanol, 293.2 K",0.000348
same,solubility (mole fraction),"in n-propanol, 298.2 K",0.000407
same,solubility (mole fraction),"in n-propanol, 303.2 K",0.000479
same,solubility (mole fraction),"in water, 278.2 K",4.04e-07
same,solubility (mole fraction),"in water, 283.2 K",4.82e-07
same,solubility (mole fraction),"in water, 288.2 K",5.8e-07
same,solubility (mole fraction),"in water, 293.2 K",6.99e-07
same,solubility (mole fraction),"in water, 298.2 K",8.5e-07
same,solubility (mole fraction),"in water, 303.2 K",1.04e-06
